US7262212B2, “2,3-dihydro-6-nitroimidazo[2,1-b]oxazoles” (Otsuka Pharmaceutical Co., Ltd., priority 2002, dated 2007)

**Q.** With `CC(C)(C)OC(=O)N1CCN(C(=O)OC[C@@]2(C)Cn3cc([N+](=O)[O-])nc3O2)CC1` as the compound, how does the melting point read?
**A.** 211 to 212 °C

**Q.** Which melting point does the source give for `O=C(Nc1ccc(Cl)cc1)N1CCC2(CC1)Cn1cc([N+](=O)[O-])nc1O2` here?
**A.** 249 to 252 °C (dec.)

**Q.** With `C[C@]1(CN2CCC(N3CCN(c4ccc(Cl)cc4)CC3)CC2)Cn2cc([N+](=O)[O-])nc2O1` as the compound, how does the melting point read?
**A.** 226 to 228 °C

**Q.** With `C[C@]1(CN2CCC(N3CCN(Cc4ccc(OC(F)(F)F)cc4)CC3)CC2)Cn2cc([N+](=O)[O-])nc2O1` as the compound, how does the melting point read?
**A.** 142 to 143 °C

**Q.** For `CC(C)(C)OC(=O)N1CCN(c2ccc(OC[C@@]3(C)Cn4cc([N+](=O)[O-])nc4O3)cc2Cl)CC1`, which melting point is on record?
**A.** 207 to 209.5 °C

**Q.** For `C[C@]1(CN2CCC(N3CCC(Oc4ccc(OC(F)(F)F)cc4)CC3)CC2)Cn2cc([N+](=O)[O-])nc2O1`, which melting point is on record?
**A.** 131 to 132 °C

**Q.** For `CC1(COc2ccc(N3CCC(Oc4ccc(Cl)cc4)CC3)cc2)Cn2cc([N+](=O)[O-])nc2O1` (stereo not drawn), which melting point is on record?
**A.** 151 to 152.3 °C

**Q.** For `C[C@]1(COc2cccc(N3CCN(C(=O)OCc4ccc(OC(F)(F)F)cc4)CC3)c2)Cn2cc([N+](=O)[O-])nc2O1`, which melting point is on record?
**A.** 136.5 to 138 °C

**Q.** Which melting point does the source give for `C[C@]1(COc2ccc(C3CCN(Cc4ccc(OC(F)(F)F)cc4)CC3)cc2)Cn2cc([N+](=O)[O-])nc2O1` here?
**A.** 186 to 188 °C

**Q.** Which melting point does the source give for `C[C@]1(COc2ccc(C3=CCN(Cc4ccc(OC(F)(F)F)cc4)CC3)cc2)Cn2cc([N+](=O)[O-])nc2O1` here?
**A.** 168 to 174 °C

**Q.** With `CN(CCN1CCN(C(=O)OC(C)(C)C)CC1)C[C@@]1(C)Cn2cc([N+](=O)[O-])nc2O1` as the compound, how does the melting point read?
**A.** 149.5 to 151.8 °C

**Q.** With `CN(Cc1ccc(Cl)cc1)C[C@@]1(C)Cn2cc([N+](=O)[O-])nc2O1` as the compound, how does the melting point read?
**A.** 129 to 129.5 °C

**Q.** For `CCOC(=O)NCC1(C)Cn2cc([N+](=O)[O-])nc2O1` (stereo not drawn), which melting point is on record?
**A.** 182.5 to 183.4 °C

**Q.** With `O=C(NCC1Cn2cc([N+](=O)[O-])nc2O1)OCc1ccc(F)cc1` (stereo not drawn) as the compound, how does the melting point read?
**A.** 164.6 to 165.1 °C

**Q.** Which melting point does the source give for `CNC(C1CCN(C(=O)OCc2ccc(OC(F)(F)F)cc2)CC1)[C@]1(C)Cn2cc([N+](=O)[O-])nc2O1` (stereo partly drawn) here?
**A.** 84.2 to 86.8 °C

**Q.** With `CNC(C1CCN(C(=O)OCc2ccc(Cl)cc2)CC1)[C@]1(C)Cn2cc([N+](=O)[O-])nc2O1` (stereo partly drawn) as the compound, how does the melting point read?
**A.** 116.2 to 116.6 °C

**Q.** With `CN(C(=O)OC(C)(C)C)C1CCN(CC2(C)Cn3cc([N+](=O)[O-])nc3O2)CC1` (stereo not drawn) as the compound, how does the melting point read?
**A.** 198.8 to 201.1 °C

**Q.** With `CN(C(=O)OCc1ccc(Cl)cc1)C1CCN(CC2(C)Cn3cc([N+](=O)[O-])nc3O2)CC1` (stereo not drawn) as the compound, how does the melting point read?
**A.** 147.2 to 149.2 °C

**Q.** For `CC1(CN2CCC(Cc3ccc(OC(F)(F)F)cc3)CC2)Cn2cc([N+](=O)[O-])nc2O1` (stereo not drawn), which melting point is on record?
**A.** 143.5 to 145 °C

**Q.** Which melting point does the source give for `C[C@]1(CN2CCC(OCCc3ccc(C(F)(F)F)cc3)CC2)Cn2cc([N+](=O)[O-])nc2O1` here?
**A.** 84.6 to 86.8 °C

**Q.** With `CC1(CN2CCN(c3ccc(-c4ccccc4)cc3)CC2)Cn2cc([N+](=O)[O-])nc2O1` (stereo not drawn) as the compound, how does the melting point read?
**A.** 223 to 227.8 °C

**Q.** With `CC1(CN2CCN(c3ccc(Cl)cc3)CC2)Cn2cc([N+](=O)[O-])nc2O1` (stereo not drawn) as the compound, how does the melting point read?
**A.** 196.6 to 197.3 °C

**Q.** Which melting point does the source give for `O=[N+]([O-])c1cn2c(n1)OC(CN1CCN(Cc3ccc(-c4ccccc4)cc3)CC1)C2` (stereo not drawn) here?
**A.** 183 to 185 °C (dec.)

**Q.** With `CC1(CCCN2CCN(Cc3ccc(C(F)(F)F)cc3)CC2)Cn2cc([N+](=O)[O-])nc2O1` (stereo not drawn) as the compound, how does the melting point read?
**A.** 154 to 156 °C

**Q.** For `CC1(CCN2CCN(Cc3ccc(-c4ccccc4)cc3)CC2)Cn2cc([N+](=O)[O-])nc2O1` (stereo not drawn), which melting point is on record?
**A.** 181 to 182 °C

**Q.** Which melting point does the source give for `CC1(CO)Cn2cc([N+](=O)[O-])nc2O1` (stereo not drawn) here?
**A.** 166 to 168 °C

**Q.** With `CC(=O)c1ccc(COC(=O)N2CCN(CC3(C)Cn4cc([N+](=O)[O-])nc4O3)CC2)cc1` (stereo not drawn) as the compound, how does the melting point read?
**A.** 101 to 102 °C

**Q.** With `CC1(CN2CCN(C(=O)NC3CCCCC3)CC2)Cn2cc([N+](=O)[O-])nc2O1` (stereo not drawn) as the compound, how does the melting point read?
**A.** 216.5 to 218.5 °C

**Q.** With `CC1(CN2CCN(C(=S)Nc3ccccc3)CC2)Cn2cc([N+](=O)[O-])nc2O1` (stereo not drawn) as the compound, how does the melting point read?
**A.** 164 to 165 °C (dec.)

**Q.** For `O=[N+]([O-])c1cn2c(n1)O[C@@H](CN1CCN(c3ccc(F)cc3)CC1)C2`, which melting point is on record?
**A.** 178.5 to 179.5 °C

**Q.** Which melting point does the source give for `O=[N+]([O-])c1cn2c(n1)O[C@@H](CN1CCN(Cc3ccc(-c4ccccc4)cc3)CC1)C2` here?
**A.** 207 to 208 °C

**Q.** For `O=[N+]([O-])c1cn2c(n1)O[C@H](CN1CCN(Cc3ccc(C(F)(F)F)cc3)CC1)C2`, which melting point is on record?
**A.** 141 to 143 °C

**Q.** Which melting point does the source give for `CC1(CN2CCN(C(=O)COc3ccccc3)CC2)Cn2cc([N+](=O)[O-])nc2O1` (stereo not drawn) here?
**A.** 158 to 160.6 °C

**Q.** For `CC1(CN2CCN(C(=O)Cc3ccc(Cl)cc3)CC2)Cn2cc([N+](=O)[O-])nc2O1` (stereo not drawn), which melting point is on record?
**A.** 184 to 187 °C

**Q.** For `Cc1ccc(CC(=O)N2CCN(CC3(C)Cn4cc([N+](=O)[O-])nc4O3)CC2)cc1` (stereo not drawn), which melting point is on record?
**A.** 213 to 214 °C

**Q.** For `C[C@]1(CN2CCN(C(=O)OCC=Cc3cccc(Cl)c3)CC2)Cn2cc([N+](=O)[O-])nc2O1.O=C(O)/C=C\C(=O)O`, which melting point is on record?
**A.** 150 to 151 °C

**Q.** For `C[C@@]1(CN2CCN(C(=O)OCc3ccc(F)cc3)CC2)Cn2cc([N+](=O)[O-])nc2O1`, which melting point is on record?
**A.** 167 to 169 °C

**Q.** Which melting point does the source give for `CC1(CN2CCN(C(=O)Nc3ccc(Cl)c(C(F)(F)F)c3)CC2)Cn2cc([N+](=O)[O-])nc2O1` (stereo not drawn) here?
**A.** 222 to 224 °C

**Q.** With `CC1(CN2CCN(C(=O)Nc3ccc(Cl)c(Cl)c3)CC2)Cn2cc([N+](=O)[O-])nc2O1` (stereo not drawn) as the compound, how does the melting point read?
**A.** 212 to 214 °C (dec.)

**Q.** With `C[C@]1(CN2CCN(C(=O)Nc3ccc(C(F)(F)F)cc3)CC2)Cn2cc([N+](=O)[O-])nc2O1` as the compound, how does the melting point read?
**A.** 150 to 152.5 °C

**Q.** For `COc1ccc(NC(=O)N2CCN(C[C@@]3(C)Cn4cc([N+](=O)[O-])nc4O3)CC2)cc1`, which melting point is on record?
**A.** 185.5 to 187.5 °C

**Q.** With `CC1(CCSc2nc3ccccc3o2)Cn2cc([N+](=O)[O-])nc2O1` (stereo not drawn) as the compound, how does the melting point read?
**A.** 174 to 175 °C

**Q.** With `C[C@]1(CN2CCN(N=Cc3cc4cc(Cl)ccc4o3)CC2)Cn2cc([N+](=O)[O-])nc2O1` as the compound, how does the melting point read?
**A.** 213.8 to 215.7 °C

**Q.** Which melting point does the source give for `CCCCCC(C=NN1CCN(CC2(C)Cn3cc([N+](=O)[O-])nc3O2)CC1)=Cc1ccccc1` (stereo not drawn) here?
**A.** 166.6 to 169.6 °C

**Q.** With `CC1(Cn2nc(COc3ccc(Cl)cc3)oc2=O)Cn2cc([N+](=O)[O-])nc2O1` (stereo not drawn) as the compound, how does the melting point read?
**A.** 64 to 66 °C

**Q.** For `CN(C)c1ccc2c(c1)n(CC1(C)Cn3cc([N+](=O)[O-])nc3O1)c(=O)n2C` (stereo not drawn), which melting point is on record?
**A.** 264.6 to 268.3 °C (dec.)

**Q.** Which melting point does the source give for `CC1(CN2CCN(Cc3ccc(F)cc3)C2=O)Cn2cc([N+](=O)[O-])nc2O1` (stereo not drawn) here?
**A.** 182.5 to 183.3 °C

**Q.** Which melting point does the source give for `CC1(CN2CCC(=O)CC2)Cn2cc([N+](=O)[O-])nc2O1` (stereo not drawn) here?
**A.** 124 to 126 °C

**Q.** With `CC1(CN2CCN(C(C)(C)C)C(=O)C2)Cn2cc([N+](=O)[O-])nc2O1` (stereo not drawn) as the compound, how does the melting point read?
**A.** 193 to 194 °C

**Q.** For `CC1(Cn2ccnc2)Cn2cc([N+](=O)[O-])nc2O1` (stereo not drawn), which melting point is on record?
**A.** 245.5 to 247.8 °C

**Q.** For `CC(C)(C)OC(=O)N1CCC2(CC1)Cn1cc([N+](=O)[O-])nc1O2`, which melting point is on record?
**A.** 230 to 232 °C

**Q.** With `CC(C)(C)OC(=O)N1CCN(CC(=O)N2CCC3(CC2)Cn2cc([N+](=O)[O-])nc2O3)CC1` as the compound, how does the melting point read?
**A.** 211 to 213 °C

**Q.** Which melting point does the source give for `CC(=O)N1CCC2(CC1)Cn1cc([N+](=O)[O-])nc1O2` here?
**A.** 232 to 234 °C

**Q.** With `O=C(NCc1ccc(OC(F)(F)F)cc1)N1CCC2(CC1)Cn1cc([N+](=O)[O-])nc1O2` as the compound, how does the melting point read?
**A.** 223 to 225 °C

**Q.** With `CN(Cc1ccc(OC(F)(F)F)cc1)C(=O)OC[C@@]1(C)Cn2cc([N+](=O)[O-])nc2O1` as the compound, how does the melting point read?
**A.** 123 to 124 °C

**Q.** Which melting point does the source give for `CC1(COC(=O)N2CCCCC2)Cn2cc([N+](=O)[O-])nc2O1` (stereo not drawn) here?
**A.** 152 to 154 °C

**Q.** With `C[C@]1(CN2CCN(C(=O)OCC(F)(F)F)CC2)Cn2cc([N+](=O)[O-])nc2O1` as the compound, how does the melting point read?
**A.** 123.5 to 124 °C
